Assay: Solubility and stability of crystalline sulphate salt form I compared to free base amorphous form
Format: physicochemical
Details: compared to the free base amorphous form

## COc1cc2c(cc1OC(C)C)[C@H](c1ccc(Cl)cc1)N(c1ccc(N(C)C[C@H]3CC[C@H](N4CCN(C)C(=O)C4)CC3)cc1)C(=O)C2.O=S(=O)(O)O [(S)-1-(4-Chloro-phenyl)-7-isopropoxy-6-methoxy-2-(4-{methyl-[4-(4-methyl-3-oxo-piperazin-1-yl)-trans-cyclohexylmethyl]-amino}-phenyl)-1,4-dihydro-2H-isoquinolin-3-one sulphate salt]
  solubility: improvements
  stability: improvements

Reference: US9051279B2, “Substituted isoquinolinones and quinazolinones” (Novartis AG, priority 2009, dated 2015)
